In article PMC11116414, “Impact of secretin receptor homo-dimerization on natural ligand binding” (Nature Communications, 2024):
No end group written: not given here.

System: cysteine-containing SecR(G264A,I268A) constructs
Assay: Cysteine trapping with SecR(G264A,I268A) cysteine constructs, intact COS-1 cells
Type: binding, human
Conditions: for Intraloop labeling / Overall labeling: mean ± S.E.M.
Procedure: In short, 15 µg of each peptide were incubated with 1 mCi of Na^125I for 15 s in borate buffer (pH 9.0) using solid-state N-chlorobenzene sulfonamide (iodination beads), and radioactive peptide products were separated and purified using reversed-phase HPLC, to yield a mono-iodinated peak with a specific radioactivity of 2000 Ci/mmol.
Modified secretin receptor constructs were prepared by mutagenesis of human SecR(G264A,I268A) by introducing cysteine residues to replace each natural residue in the N-terminal stalk region, (extracellular loop 1) ECL1, ECL2, and ECL3 regions of the receptor[21]. Mutagenesis was performed using the QuikChange site-directed mutagenesis kit from Stratagene (La Jolla, CA), with the products verified by direct DNA sequencing.
Cysteine trapping is a technique in which cysteine residues incorporated into distinct positions within a peptide ligand and within its receptor are allowed to form disulfide bonds when two free cysteines are in proximity to each other with necessary distance and geometry. As noted above, this was performed with secretin peptides incorporating cysteines in positions 2, 5, 6 and 7[20],[21], and with a series of SecR mutants incorporating cysteines in all extracellular domains (75 distinct constructs in a TM4 mutant non-dimerizing SecR background). COS-1 cells were grown to approximate 85% confluence in 24-well tissue culture plates, and transfected with cysteine mutant receptor constructs using the PEI method. Assays were started by washing the cells with DMEM containing 5% Fetal Clone II before being incubated with 200 μl radiolabeled cysteine-containing probes (approximately 100,000 cpm per well) for 1.5 h at room temperature. The assays were terminated by washing the cells with ice-cold PBS, pH 7.4, and mixing with 60 µl SDS Laemmli sample buffer not containing dithiothreitol (DTT). Lysates were run on 10% SDS-polyacrylamide gels. Gels were then dried, and bands of interest were visualized by autoradiography, and specific bands were identified, and intensities quantified using ImageJ. Sites having labeling above background were determined using one-way ANOVA with Dunnett’s post-test, with P < 0.001 considered to be significant. The apparent molecular weights of the receptor bands were determined by interpolation with the mobility of the appropriate ProSieve protein markers.

Cys^6-[Tyr^10]secretin(1-27) (HSDGTCTSEYSRLREGARLQRLLQGLV; not fully specified; ends and bridges not checked; also: radioiodinated; UniProt P09683 28-54, looked up, variant F6C L10Y) [Cys^6-Sec, cysteine-containing secretin agonist probe, radioiodinated for cysteine trapping]
Intraloop labeling (A292C, ECL2, n = 3-5): 29.1 ±17.0 percentage
Overall labeling (A292C, ECL2, n = 3-5, Cys5 significant (P < 0.0001)): 24.9±17.2 percentage
Intraloop labeling (D282C, ECL2, n = 3-5): < 1 percentage
Overall labeling (D282C, ECL2, n = 3-5): < 1 percentage
Intraloop labeling (D364C, ECL3, n = 3-5): 17.1±8.2 percentage
Overall labeling (D364C, ECL3, n = 3-5, Cys5 significant (P < 0.0001)): 16.2±8.4 percentage
Intraloop labeling (E367C, ECL3, n = 3-5): 40.8±17.2 percentage
Overall labeling (E367C, ECL3, n = 3-5): 35.5±14.9 percentage
Intraloop labeling (E373C, ECL3, n = 3-5): 19.9±17.3 percentage
Overall labeling (E373C, ECL3, n = 3-5): 13.9±11.4 percentage
Overall labeling (F279C, ECL2, % of highest-labeled residue across all constructs, n = 4 (Cys2), 5 (Cys5, Cys6), 3 (Cys7)): < 1 percentage
Intraloop labeling (F358C, ECL3, n = 3-5): 16.4±12.8 percentage
Overall labeling (F358C, ECL3, n = 3-5): 10.2±6.9 percentage
Intraloop labeling (F371C, ECL3, n = 3-5): 11.4±11.0 percentage
Intraloop labeling (F372C, ECL3, n = 3-5): 19.0±15.7 percentage
Overall labeling (F372C, ECL3, n = 3-5): 13.6±10.3 percentage
Overall labeling (G284C, ECL2, n = 3-5): < 1 percentage
Intraloop labeling (I294C, ECL2, n = 3-5): 10.5±9.5 percentage
Overall labeling (I294C, ECL2, n = 3-5): 10.3±9.5 percentage
Intraloop labeling (I297C, ECL2, n = 3-5): 30.1±18.4 percentage
Intraloop labeling (L374C, ECL3, n = 3-5): 94.8±5.2 percentage
Overall labeling (L374C, ECL3, n = 3-5, Cys5, Cys6, Cys7 significant (P < 0.001)): 78.8±9.2 percentage
Intraloop labeling (M366C, ECL3, n = 3-5): 56.2±16.4 percentage
Overall labeling (M366C, ECL3, n = 3-5, Cys5 significant (P < 0.0001)): 48.0±17.7 percentage
Intraloop labeling (N289C, ECL2, n = 3-5): 15.8±14.5 percentage
Overall labeling (N289C, ECL2, n = 3-5): 15.7±14.5 percentage
Intraloop labeling (N291C, ECL2, n = 3-5): < 1 percentage
Overall labeling (N291C, ECL2, n = 3-5): < 1 percentage
Intraloop labeling (Q369C, ECL3, n = 3-5): 13.0±12.7 percentage
Intraloop labeling (V283C, ECL2, n = 3-5): 15.8±13.9 percentage
Overall labeling (V283C, ECL2, n = 3-5): 15.5±13.9 percentage
Intraloop labeling (W286C, ECL2, n = 3-5): 24.4±19.3 percentage
Overall labeling (W286C, ECL2, n = 3-5): 13.4±8.9 percentage
Intraloop labeling (W295C, ECL2, n = 3-5): 34.2±0.1 percentage
Overall labeling (W295C, ECL2, n = 3-5, Cys2, Cys5, Cys7 significant (P < 0.0001)): 34.1±17.2 percentage
Intraloop labeling (W296C, ECL2, n = 3-5): 80.2±19.8 percentage
Overall labeling (W296C, ECL2, n = 3-5, Cys6 significant (P = 0.0003)): 68.0±20.5 percentage
cysteine trapping in ECL3, in words (WT (earlier work) and non-dimerizing SecR): labeled ECL3 residues
